Laboratory results reported in PubChem BioAssay AID248 (DTP/NCI, 2004).
Values joined by “and” are separate entries in the source; they are usually repeats but may differ in a detail not shown here. Equal values may be shown once. Toxic doses and inconclusive results are not listed. No stated cut-off is given here; in the data, active means T/C of 150% or more; inactive means T/C below 125%.

Test system: L1210 leukemia ip in BDF1 mice, survival T/C
Assay: NCI In Vivo Anticancer Drug Screen. Data for tumor model L1210 Leukemia (intraperitoneal) in B6D2F1 (BDF1) mice
Conditions: endpoint: mean survival time, higher = longer survival
Outline: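 Ratio derived from survival: compound-dosed mice over vehicle-dosed mice, all bearing a transplantable tumor.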

[1] = dose: 100.0 mg/kg/injection, schedule: Q01DX009 (ip), vehicle: saline with Tween-80
[2] = dose: 200.0 mg/kg/injection, schedule: Q01DX009 (ip), vehicle: saline with Tween-80
[3] = dose: 100.0 mg/kg/injection, schedule: Q04DX002 (ip), vehicle: Klucel (hydroxypropylcellulose) (HPC)
[4] = dose: 100.0 mg/kg/injection, schedule: Q01DX009 (ip), vehicle: Klucel (hydroxypropylcellulose) (HPC)
[5] = dose: 200.0 mg/kg/injection, schedule: Q01DX009 (ip), vehicle: Klucel (hydroxypropylcellulose) (HPC)
[6] = dose: 400.0 mg/kg/injection, schedule: Q01DX009 (ip), vehicle: Klucel (hydroxypropylcellulose) (HPC)
[7] = dose: 100.0 mg/kg/injection, schedule: Q01DX001 (ip), vehicle: carboxymethylcellulose (CMC)
[8] = dose: 200.0 mg/kg/injection, schedule: Q01DX001 (ip), vehicle: carboxymethylcellulose (CMC)
[9] = dose: 400.0 mg/kg/injection, schedule: Q01DX001 (ip), vehicle: carboxymethylcellulose (CMC)

Measured: T/C

Cc1ccc(Nc2cc(Br)c(N)c3c2C(=O)c2ccccc2C3=O)cc1
inactive: dose: 100.0 mg/kg/injection, schedule: Q01DX001 (ip), vehicle: saline with Tween-80 103 % of control | [1] 93 % of control and 94 % of control | dose: 100.0 mg/kg/injection, schedule: Q04DX002 (ip), vehicle: saline with Tween-80 92 % of control | dose: 100.0 mg/kg/injection, schedule: Q04DX003 (ip), vehicle: saline with Tween-80 97 % of control | dose: 200.0 mg/kg/injection, schedule: Q01DX001 (ip), vehicle: saline with Tween-80 102 % of control | [2] 93 % of control and 94 % of control | dose: 200.0 mg/kg/injection, schedule: Q04DX002 (ip), vehicle: saline with Tween-80 86 % of control | dose: 200.0 mg/kg/injection, schedule: Q04DX003 (ip), vehicle: saline with Tween-80 95 % of control | dose: 400.0 mg/kg/injection, schedule: Q01DX001 (ip), vehicle: saline with Tween-80 91 % of control | dose: 400.0 mg/kg/injection, schedule: Q01DX009 (ip), vehicle: saline with Tween-80 96 % of control and 97 % of control | dose: 400.0 mg/kg/injection, schedule: Q04DX002 (ip), vehicle: saline with Tween-80 86 % of control | dose: 400.0 mg/kg/injection, schedule: Q04DX003 (ip), vehicle: saline with Tween-80 90 % of control

O=C(OCc1ccccc1CN1CCCCC1)c1ccc(Br)cc1
inactive: dose: 25.0 mg/kg/injection, schedule: Q04DX002 (ip), vehicle: Klucel (hydroxypropylcellulose) (HPC) 115 % of control | dose: 50.0 mg/kg/injection, schedule: Q04DX002 (ip), vehicle: Klucel (hydroxypropylcellulose) (HPC) 109 % of control | [3] 105 % of control

CCSCC(O)CCl (stereo not given)
inactive: dose: 37.5 mg/kg/injection, schedule: Q04DX002 (ip), vehicle: saline 103 % of control | dose: 37.5 mg/kg/injection, schedule: Q04DX003 (ip), vehicle: Klucel (hydroxypropylcellulose) (HPC) 115 % of control | dose: 75.0 mg/kg/injection, schedule: Q04DX002 (ip), vehicle: saline 107 % of control | dose: 75.0 mg/kg/injection, schedule: Q04DX003 (ip), vehicle: Klucel (hydroxypropylcellulose) (HPC) 105 % of control | dose: 150.0 mg/kg/injection, schedule: Q04DX002 (ip), vehicle: saline 100 % of control | dose: 150.0 mg/kg/injection, schedule: Q04DX003 (ip), vehicle: Klucel (hydroxypropylcellulose) (HPC) 98 % of control

O=C(Cc1ccc([N+](=O)[O-])cc1)c1ccccc1
inactive: dose: 100.0 mg/kg/injection, schedule: Q01DX001 (ip), vehicle: Klucel (hydroxypropylcellulose) (HPC) 95 % of control | [4] 102 % of control | dose: 100.0 mg/kg/injection, schedule: Q01DX009 (ip), vehicle: saline 108 % of control | dose: 100.0 mg/kg/injection, schedule: Q04DX003 (ip), vehicle: Klucel (hydroxypropylcellulose) (HPC) 97 % of control | dose: 200.0 mg/kg/injection, schedule: Q01DX001 (ip), vehicle: Klucel (hydroxypropylcellulose) (HPC) 88 % of control | [5] 103 % of control | dose: 200.0 mg/kg/injection, schedule: Q01DX009 (ip), vehicle: saline 102 % of control | dose: 200.0 mg/kg/injection, schedule: Q04DX003 (ip), vehicle: Klucel (hydroxypropylcellulose) (HPC) 97 % of control | dose: 400.0 mg/kg/injection, schedule: Q01DX001 (ip), vehicle: Klucel (hydroxypropylcellulose) (HPC) 90 % of control | [6] 94 % of control | dose: 400.0 mg/kg/injection, schedule: Q01DX009 (ip), vehicle: saline 97 % of control | dose: 400.0 mg/kg/injection, schedule: Q04DX003 (ip), vehicle: Klucel (hydroxypropylcellulose) (HPC) 101 % of control

O=C(C[N+]12CN3CN(CN(C3)C1)C2)c1ccc(Cl)cc1
inactive: dose: 40.0 mg/kg/injection, schedule: Q01DX Z (ip), vehicle: saline 98 % of control | dose: 44.0 mg/kg/injection, schedule: Q01DX Z (ip), vehicle: carboxymethylcellulose (CMC) 109 % of control | dose: 50.0 mg/kg/injection, schedule: Q01DX001 (ip), vehicle: carboxymethylcellulose (CMC) 107 % of control | dose: 60.0 mg/kg/injection, schedule: Q01DX Z (ip), vehicle: saline 107 % of control | dose: 73.0 mg/kg/injection, schedule: Q01DX Z (ip), vehicle: carboxymethylcellulose (CMC) 110 % of control | dose: 90.0 mg/kg/injection, schedule: Q01DX Z (ip), vehicle: saline 109 % of control | [7] 102 % of control | dose: 110.0 mg/kg/injection, schedule: Q01DX Z (ip), vehicle: carboxymethylcellulose (CMC) 113 % of control | dose: 135.0 mg/kg/injection, schedule: Q01DX Z (ip), vehicle: saline 109 % of control | dose: 165.0 mg/kg/injection, schedule: Q01DX Z (ip), vehicle: carboxymethylcellulose (CMC) 115 % of control | [8] 100 % of control | dose: 202.5 mg/kg/injection, schedule: Q01DX Z (ip), vehicle: saline 112 % of control | dose: 303.7 mg/kg/injection, schedule: Q01DX Z (ip), vehicle: saline 113 % of control | [9] 107 % of control

C#CCOC(=O)Nc1ccc(C)cc1
inactive: [7] 108 % of control | [8] 100 % of control | [9] 118 % of control

O=c1cn[nH]c(=O)[nH]1
inactive: dose: 62.5 mg/kg/injection, schedule: Q01DX009 (ip), vehicle: saline 105 % of control and 107 % of control | dose: 62.5 mg/kg/injection, schedule: Q01DX010 (ip), vehicle: saline 97 % of control and 102 % of control | dose: 110.1 mg/kg/injection, schedule: Q01DX Z (ip), vehicle: carboxymethylcellulose (CMC) 107 % of control | dose: 125.0 mg/kg/injection, schedule: Q01DX009 (ip), vehicle: saline 103 % of control and 118 % of control | dose: 125.0 mg/kg/injection, schedule: Q01DX010 (ip), vehicle: saline 94 % of control and 101 % of control | dose: 132.0 mg/kg/injection, schedule: Q01DX Z (ip), vehicle: methylcellulose (MC) 97 % of control | dose: 200.0 mg/kg/injection, schedule: Q01DX Z (ip), vehicle: methylcellulose (MC) 111 % of control | dose: 220.2 mg/kg/injection, schedule: Q01DX Z (ip), vehicle: carboxymethylcellulose (CMC) 121 % of control | dose: 250.0 mg/kg/injection, schedule: Q01DX009 (ip), vehicle: saline 100 % of control and 107 % of control | dose: 250.0 mg/kg/injection, schedule: Q01DX010 (ip), vehicle: saline 108 % of control and 111 % of control | dose: 300.0 mg/kg/injection, schedule: Q01DX Z (ip), vehicle: methylcellulose (MC) 111 % of control | dose: 440.4 mg/kg/injection, schedule: Q01DX Z (ip), vehicle: carboxymethylcellulose (CMC) 113 % of control | dose: 450.0 mg/kg/injection, schedule: Q01DX Z (ip), vehicle: methylcellulose (MC) 105 % of control | dose: 500.0 mg/kg/injection, schedule: Q01DX009 (ip), vehicle: saline 112 % of control and 120 % of control | dose: 500.0 mg/kg/injection, schedule: Q01DX010 (ip), vehicle: saline 117 % of control and 118 % of control | dose: 675.0 mg/kg/injection, schedule: Q01DX Z (ip), vehicle: methylcellulose (MC) 124 % of control | dose: 880.8 mg/kg/injection, schedule: Q01DX Z (ip), vehicle: carboxymethylcellulose (CMC) 121 % of control | dose: 1011.0 mg/kg/injection, schedule: Q01DX Z (ip), vehicle: methylcellulose (MC) 109 % of control

CCCCCCCCCCc1nc(N)nc(NCCc2ccccc2)n1
inactive: [3] 106 % of control | dose: 200.0 mg/kg/injection, schedule: Q04DX002 (ip), vehicle: Klucel (hydroxypropylcellulose) (HPC) 89 % of control | dose: 400.0 mg/kg/injection, schedule: Q04DX002 (ip), vehicle: Klucel (hydroxypropylcellulose) (HPC) 100 % of control

CCOC(=S)SCCSC(=S)OCC
inactive: dose: 100.0 mg/kg/injection, schedule: Q01DX001 (ip), vehicle: saline 105 % of control | dose: 200.0 mg/kg/injection, schedule: Q01DX001 (ip), vehicle: saline 100 % of control | dose: 400.0 mg/kg/injection, schedule: Q01DX001 (ip), vehicle: saline 97 % of control

CC1(C)SC(C(NC(=O)COc2ccccc2)C(=O)O)NC1C(=O)O (stereo not given)
inactive: dose: 50.0 mg/kg/injection, schedule: Q01DX009 (ip), vehicle: saline with Tween-80 101 % of control | [1] 95 % of control | [2] 88 % of control

O=C(O)CN1C(=O)OC(c2ccccc2)C1=O (stereo not given)
inactive: [4] 101 % of control | [5] 97 % of control | [6] 86 % of control
